Assays:
[1] = tested on: granzyme B-expressing CD8+T cells; assay: Granzyme B staining (FACS) of PBMCs; format: cell-based, human; conditions: DMC 2.5 μM + BiTE; PBMCs of four healthy people; p=0.01
Method: The medium collected in section 1(4) above was centrifuged at 400 g for 5 minutes, and the supernatant was removed to leave the PBMC pellet. Each antibody (CD3, CD4, CD8, and CD45RA) was diluted 100-fold with 2% FBS- and 10 mM HEPES-supplemented HBSS medium (“HBSS+2% FBS+10 mM HEPES” medium). Such antibody diluents were individually added at 30 μL/tube to the pellet in which the supernatant was removed, followed by incubation at 4° C. for 30 minutes. After an HBSS+2% FBS+10 mM HEPES medium was added at 200 μL/tube, and centrifugation was performed at 400 g for 5 minutes, the supernatant was removed to leave the pellet. After the remaining PBMCs were suspended by adding a fix buffer at 100 μL/tube, incubation was performed for 30 minutes at 4° C.
The tube obtained after the completion of incubation was centrifuged at 400 g for 5 minutes to remove the supernatant and leave the PBMC pellet. After a wash buffer was added at 200 μL/tube to suspend the pellet, centrifugation was performed at 400 g for 5 minutes to remove the supernatant and leave the PBMC pellet. An anti-Granzyme B antibody was diluted 100-fold in a wash buffer, and the remaining PBMCs were suspended in the antibody diluent (30 μL/tube), followed by incubation for 30 minutes at 4° C. […]

CD8+T cells = assay: CytoTell assay, proliferative capacity of CD8+T cells; format: cell-based, human; conditions: DMC 2.5 μM + BiTE; PBMCs of five healthy people; 96 hours; p=0.007
Method: PBMCs were collected from peripheral blood of healthy people according to the method described in section 1(1) above. A solution in which CytoTell red was mixed with the HBSS+2% FBS+10 mM HEPES medium was added to the collected PBMC pellet, followed by incubation at 37° C. for 30 minutes. After the completion of incubation, the supernatant was removed by centrifugation at 400 g for 5 minutes to leave the PBMC pellet. By adding a 10% FBS-supplemented RPMI medium, the remaining PBMCs were suspended to prepare a suspension of PBMCs having a cell count of 1×10^6/mL.
As in section 1(3) above, a U251 cell line, PBMCs, and BiTE, or a U251 cell line, PBMC, BiTE, and a test drug, were contacted and cultured at 37° C. for 96 hours.
After the completion of culture, the culture supernatant was collected, followed by washing in a 10% FBS-supplemented RPMI 1640 medium three times, and the media were also collected.
The collected medium was centrifuged at 400 g for 5 min, and the supernatant was removed to leave the PBMC pellet. Each antibody (CD3, CD4, CD8, and CD45RA) was diluted 100-fold with a HBSS+2% FBS+10 mM HEPES medium. The antibody diluents were individually added at 30 μL/tube to the pellet to suspend the remaining PBMCs, followed by incubation at 4° C. for 30 minutes. […]

[2] = tested on: CMV-specific cytotoxic T cells; assay: CMV-specific CTL induction (mixed CMV peptide/lymphocytes culture); format: cell-based, human; conditions: DMC 2.5 μM; 14 days after CMV peptide stimulation; PBMCs of one healthy person; p<0.05
Method: CMV peptides adjusted to 10 μg/mL in a 10% FBS-supplemented RPMI medium was added to PBMCs of healthy people with an HLA type of 24:02, followed by culture in a 96-well plate for 3 days. […] The medium containing PBMCs in each well was transferred into a 24-well plate for scale-up, followed by culture for another 3 days in a 10% FBS-supplemented RPMI medium containing 10 μg/mL peptide+20 U/mL IL-2±2.5 μM DMC. The medium was replaced with a 10% FBS-supplemented RPMI medium containing 10 μg/mL peptide+20 U/mL IL-2±2.5 μM DMC, followed by culture for another 4 days (culture for 14 days).
After the completion of culture, centrifugation was performed at 400 g for 5 minutes to remove the supernatant and leave the PBMC pellet; and each antibody (CD3, CD4, and CD8) was diluted 100-fold, and CMV Tetramer was diluted 10-fold in a HBSS+2% FBS+10 mM HEPES medium, and added at 30 μL/tube to a PBMC pellet to suspend the PBMCs, followed by incubation at 4° C. for 30 minutes. By adding the HBSS+2% FBS+10 mM HEPES medium at 200 μL/tube, centrifugation was performed at 400 g for 5 minutes. The supernatant was removed to leave the PBMC pellet.
The PBMCs left in the HBSS+2% FBS+10 mM HEPES medium were suspended, and the suspension was subjected to FACS analysis. […]

U251 cell line [3] = assay: Tumor-cytotoxic activity of T cells in lung cancer tissue; format: cell-based, human; conditions: BiTE + test drug (DMC); n=5 patients
Method: Regarding the tumor-cytotoxic activity of T cells in lung cancer tissue, cells were collected from lung cancer tissue according to the following method. The tumor-cytotoxic activity was measured as the activity of the cell population.
The cancer tissue was transferred to a 6-cm dish and minced. The cancer tissue was then placed in a tissue stirring solution (tumor dissociation Kit (Miltenyi Biotec) was added to HBSS+2% FBS+10 mM HEPES), followed by stirring with a gentle MACS™ Dissociator (Miltenyi Biotec). Incubation was then performed by rotating the mixture in an incubator maintained at 37° C. for 30 minutes. […] The tumor-cytotoxic activity of the collected cells was measured in accordance with the same method as in section I.1(1) to (5) above. […]
(§1) According to the method described in section I.5 above, T cells in tumor tissue of a lung cancer patient were collected; and by using such cells, tumor-cytotoxic activity was measured to examine the effect of the tetracycline-based compound. Specifically, T cells in tumor tissue of a lung cancer patient were collected according to the method described in section I.5 above; and the presence ratio of IFNγ-producing CD8^+T cells was measured according to the method described in section I.6 above, thus examining the effect of the tetracycline-based compound.

[4] = tested on: IFNγ-producing CD8+T cells; assay: IFNγ production assay on cells from lung cancer tissue; format: cell-based, human; conditions: BiTE + test drug (DMC), n=3 patients
Method: The IFNγ production capacity of cells in all media that were collected in section 5 in accordance with the method described in section 1(4) above was measured using an IFNγ secretion assay kit (Miltenyi Biotec).
The medium collected in section 1(4) above was centrifuged at 400 g for 5 minutes to remove the supernatant. An IFNγ catch reagent diluted 100-fold in a 10% human serum-supplemented AIM medium was added at 100 μL/tube to the remaining PBMC pellet to suspend the PBMCs, followed by incubation at 4° C. for 10 minutes.
A 10% human serum-supplemented AIM medium heated to 37° C. was dispensed at 1 mL/tube into the tube subjected to the incubation. While stirring the tube, incubation was performed at 37° C. for 45 minutes. […]
as §1

CT26WT cells = assay: Dependence on CD8+T cells of the enhancement of the anti-PD-L1 antibody in vivo (Example 9); set-up: species or system BALB/c mice
Method: In the same manner as in Example 8, CT26WT cells were cultured, and subcutaneously inoculated to 6-week-old BALB/c mice (Day 0).
Before the administration of DMC or water and an anti-PD-L1 antibody, the anti-CD8 antibody (InVivo MAb anti-mouse CD8α, produced by BioXCell) was intraperitoneally administered at 400 μg/200 μL/mouse to the CD8 depletion group on Day 6. Control IgG was administered at 400 μg/200 μL/mouse to the other groups.
Next, administration of DMC was started on Day 7. The DMC was dissolved in saline, and then orally administered at 200 μL/mouse using an oral sonde. In the groups free of DMC, distilled water was orally administered at 200 μL/mouse. The DMC was administered once daily from Day 7 to Day 12.
Subsequently, on Day 10, an anti-PD-L1 antibody or control IgG was intraperitoneally administered at 200 μg/200 μL/mouse.
On Day 10 and Day 13, the tumor size was measured. The tumor volume was calculated in the same manner as in Example 8.

U251 cell line [5] = assay: Tumor-cytotoxic activity using peripheral blood mononuclear cells with EphA2-CD3 BiTE; conditions: test drug 2.5 μM + BiTE 100 ng/mL; PBMCs of healthy people + U251; 48 hours; n=3; DMC, MC, CTC p<0.01; TC, MINO p<0.05
Method: Thereafter, by measuring the degree of cytotoxicity to the tumor cells (tumor-cytotoxic activity) by the PBMCs, the anti-tumor activity of T cells in the PBMCs was evaluated.
(1) A U251 cell line was suspended in a RPMI1640 medium containing 10% FBS (a 10% FBS-supplemented RPMI1640 medium), and then detached with trypsin. The cell line was suspended in a 10% FBS-supplemented RPMI1640 medium such that the cell count was 1×10^5/mL, thereby preparing a cell suspension. The cell suspension was seeded in a 96-well plate at a rate of 100 μL/well, and incubated in a wet incubator at 37° C. for 18 hours in the presence of 5% CO2 gas. […]
(3) EphA 2-CD3 BiTE (registered trademark) containing an antigen-binding domain for EphA2 and an antigen-binding domain for CD3 in the molecule was prepared at 400 ng/mL in a 10% FBS-supplemented RPMI 1640 medium (“BiTE solution”). […] The amount of the 10% FBS-supplemented RPMI medium per well was determined so that the total final amount was 200 μL. […]
(5) The absorbance at 492 nm of each well of the 96-well microplate after the completion of incubation in step (4) was measured with a microplate reader. Subsequently, tumor-cytotoxic activity was calculated in accordance with the following equation.
Absorbance of a well consisting of U251 cell line and PBMCs=A […]

Row | Structure (SMILES) | presence ratio of granzyme B-expressing CD8+T cells as compared to BiTE alone [1] | proliferative capacity of CD8+T cells as compared to BiTE alone (CD8+T cells) | presence ratio of CMV-specific cytotoxic T cells (CMV Tetramer+CD8+T cells), DMC+ as compared to DMC− [2] | anti-tumor activity of T cells in lung cancer tissue compared to BiTE alone (U251 cell line [3]) | presence ratio of IFNγ-producing CD8+T cells compared to BiTE alone [4] | tumor volume on Day 13 (CT26WT cells; Example 9, DMC 30 mg/kg oral Day 7 to Day 12, anti-PD-L1 antibody or control IgG 200 μg/mouse ip Day 10, no CD8 depletion) | increase in tumor volume as compared to the aPD-L1+H2O group (CT26WT cells; IgG+DMC group, DMC 30 mg/kg oral) | T-cell anti-tumor activity (tumor-cytotoxic activity) as compared to BiTE alone (U251 cell line [5])
1 | CN(C)[C@@H]1C(O)=C(C(N)=O)C(=O)[C@@]2(O)C(O)=C3C(=O)c4c(O)ccc(Cl)c4[C@@H](O)[C@H]3C[C@@H]12 [DMC, demethyl chlortetracycline] | high | high | significantly high | enhanced | increased | about 100 mm^3 | more inhibited | 
2 | CN(C)[C@@H]1C(=O)C(C(N)=O)=C(O)[C@@]2(O)C(=O)C3=C(O)c4c(O)cccc4[C@@](C)(O)[C@H]3C[C@@H]12 [TC, tetracycline] |  |  |  |  |  |  |  | enhanced

Reference: patent US20210113594A1, “TUMOR IMMUNOMODULATOR” (OSAKA UNIVERSITY, priority 2018, published 2021)
